# Experimental data taken from patent US7312358B2, “Pharmaceutically active sulfanilide derivatives” (Laboratoires Serono SA, priority 2000, dated 2007).
# Assays:
# [1] = target: T1, hOT-R (Homo sapiens, UniProt P30559); experiment: Inhibition of oxytocin mediated Ca2+-mobilization by FLIPR (HEK cells); format: cell-based; conditions: fluo-4, OT 40 nM
# T1 construct: expressed in transfected cells; host or cells: HEK (Human Embryonic Kidney) cells
# T1 sequence (P30559 1-389): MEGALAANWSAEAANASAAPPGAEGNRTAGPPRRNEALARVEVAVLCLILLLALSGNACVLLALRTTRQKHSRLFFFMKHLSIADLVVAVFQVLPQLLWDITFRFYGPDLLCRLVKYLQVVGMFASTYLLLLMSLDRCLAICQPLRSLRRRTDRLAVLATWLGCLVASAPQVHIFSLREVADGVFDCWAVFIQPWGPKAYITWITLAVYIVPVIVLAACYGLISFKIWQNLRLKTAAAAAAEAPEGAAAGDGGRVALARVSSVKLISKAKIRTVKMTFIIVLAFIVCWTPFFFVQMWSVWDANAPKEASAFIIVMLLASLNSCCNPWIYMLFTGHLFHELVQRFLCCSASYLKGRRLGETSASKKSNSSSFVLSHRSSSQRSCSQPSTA
# In short: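 HEK cells loaded with fluo-4 for 1.5–2 h; antagonist added at 10 pM–30 μM in HEPES-buffered saline, pH 7.4, then stimulated with 40 nM oxytocin. Intracellular Ca2+ mobilization read as fluorescence on FLIPR.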
# [2] = target: hV1a (Homo sapiens, UniProt P37288); experiment: In vitro competition binding assay on hV1a receptor with scintillating proximity assay; set-up: expressed in transfected cells; host or cells: CHO cells (membranes); conditions: membranes from CHO cells expressing hV1a receptor; radiolabel [125I]-LVA; SPA; read-out: Binding Affinity Human V1a Ki
# Protocol: b) In Vitro Competition Binding Assay on hV1a Receptor with Scintillating Proximity Assay
# This assays allows to determine the affinity of the test compounds for the V1a receptor. Membranes from CHO cells expressing the hV1a receptor were resuspended in buffer containing 50 mM Tris-HCl, pH 7.4, 5 mM MgCl2 and 0.1% BSA (w/v). The membranes (5-10 μg) were mixed with 0.2 mg wheat-germ aglutinin (WGA) SPA bead (type A) and 0.03 nM of the radiolabel [^125I]-LVA (LVA being Linear Vasopressin Antagonist and is an analogue of AVP for competition binding experiments). Non-specific binding was determined in the presence of 1 μM AVP. The total assay volume was 100 μl. The plates (Corning 0 NBS plate) were incubated at room temperature for 2 hours and counted on a Mibrobeta plate counter. The tests compounds were used in concentrations of 30 μM, 10 μM, 1 μM, 300 nM, 100 nM, 10 nM, 1 nM, 100 pM, 10 pM. The competition binding data were analysed using the iterative, nonlinear, curve-fitting program, Graph pad “Prism”.
# The binding affinities to the Via receptor of the sulfanilide derivatives claimed in the formula I were assessed using the above described in vitro biological assay. The values refer to the binding affinity (IC50; HM) of the example compounds according to formula I to the V1a receptor. From the values shown in Table 1 it can be derived that said test compounds according to formula I do show a significant binding to the Via receptor.
# Sequence of hV1a (P37288 whole entry): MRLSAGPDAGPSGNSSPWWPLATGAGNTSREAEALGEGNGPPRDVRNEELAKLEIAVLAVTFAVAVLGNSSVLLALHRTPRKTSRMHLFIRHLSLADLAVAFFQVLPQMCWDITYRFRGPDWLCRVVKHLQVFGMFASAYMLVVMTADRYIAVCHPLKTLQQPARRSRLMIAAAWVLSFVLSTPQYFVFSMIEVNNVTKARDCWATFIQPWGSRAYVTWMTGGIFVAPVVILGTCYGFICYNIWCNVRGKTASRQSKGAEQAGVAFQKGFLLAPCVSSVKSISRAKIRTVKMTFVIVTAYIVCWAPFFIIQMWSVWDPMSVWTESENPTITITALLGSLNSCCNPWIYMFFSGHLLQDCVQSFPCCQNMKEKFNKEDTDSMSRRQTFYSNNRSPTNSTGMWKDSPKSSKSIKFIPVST
compound,measurement,setting,value
"CCOc1ccc(S(=O)(=O)N(CC(=O)N/N=C2/C(=O)Nc3ccccc32)c2ccc(C)cc2)cc1 [Example 5, 4-ethoxy-N-(4-methylphenyl)-N-{2-oxo-2-[2-(2-oxo-1,2-dihydro-3H-indol-3-ylidene)hydrazino]ethyl}benzenesulfonamide]",IC50,[1],55 nM
same,Ki,[2],750 nM
